Consider 13 molecules from patent publication US8173598B2, “Myeloid protein activation of anti-inflammatory and anti-hypoxic pathway” (The Board of Trustees of the University of Illinois, priority 2008, dated 2012).

Test [1] has as its system Human peripheral neutrophils. The test is described as follows: Spontaneous oxidative activation of neutrophils (DCFH-DA oxidation). It counts as cell-based. As to conditions: for rate of oxidation of the DCFH probe with soluble PAR ligands: soluble peptides given as 100 mM (FIG. 5); for rate of spontaneous oxidation of the DCFH-DA probe: 2.5 to 10 μg/ml of protein, followed over time, p <0.001 to <0.05; for oxidative metabolism (fluorescence emission of DCFH-DA probe): 1 h time point, all concentrations tested, P<0.05 compared to control; for spontaneous oxidation of the DCFH probe with protease inhibitors: α1 antichymotrypsin and elafin printed as 10 mM (FIG. 4). An excerpt: (§1) Human peripheral neutrophils were isolated from heparinized blood donated by healthy volunteers according to a protocol approved by the University of Illinois Institutional Review Board. The cells were isolated using a Histopaque™ gradient (Sigma) according to the manufacturer's instructions. Cell viability and identity was confirmed by trypan blue staining. Live cells and neutrophils represented at least 95% of isolated leukocytes.
(§2) The method for the measurement of oxidative activation of neutrophils was based on the ROS-dependent oxidation of DCFH-DA to DCF and was adapted from Ciapetti et al. DCFH-DA crosses the cell membrane and is hydrolyzed by nonspecific esterases to nonfluorescent DCFH. Its oxidation by ROS results in the generation of highly fluorescent DCF [30]. DCFH-DA is therefore a widely accepted probe for the measurement of an overall index of oxidative activity. DCFH-DA was purchased from Calbiochem (Madison, Wis.). The assays were run in clear bottom black 96-well plate. “Edge effects” (a higher fluorescence in edge wells) were avoided by using only center wells. Briefly, 50 μl of Dulbecco's Phosphate Buffered Saline (DPBS) containing DCFH-DA was added to each well with the final concentration of […]. S100 proteins or PKC inhibitors were diluted in the wells. Just before a baseline reading 100,000 neutrophils in 50 μl PBS were placed in each well. 96-well plates were incubated at 37° C. and 5% CO2 and were read at baseline (immediately after cell addition to the plates) and at indicated time points in a Spectra Max Gemini XS fluorescent plate reader. The excitation wavelength was 485 and the reading was done at 530 nm. Wells with no DCFH-DA were used to measure background fluorescence which was subtracted from each reading. Controls with no cells were also analyzed and display no increased fluorescence over time. All assays were conducted in triplicate or quadruplicate wells.
In order to avoid differences between donors, experimental procedures and plate to plate variation, all experimental conditions and statistical analysis were run within one plate inclusive of all positive and negative controls. Single sample t-tests were calculated to test the S100A8, S100A9 and combined proteins in comparison to the control wells with alpha set to ≦0.05 to determine statistical significance. Comparisons between the S100A8, S100A9 and combined proteins were calculated with two sample t-tests using SPSS (SPSS Inc., Chicago, Ill.) with alpha set to ≦0.05 to determine statistical relevance.

A further test relates to thrombin receptors. Description: Calcium flux and thrombin-S100A8/A9 cross-desensitization in Chem-3 cells. It counts as cell-based. As to conditions: for calcium flux in Chem-3 cells: each alone. As for the experimental part: (§3) Screening for S100A8 and S100A9 activity on thrombin receptors including thrombin receptor desensitization were conducted with calcium flux assays in Chem 3 and PAR-4 expressing Chem.-1 cells by Millipore's GPCRProfiler(R) Service (Millipore, St. Charles, Mo.; see website Millipore website on the internet).
A general note: Calcium flux is commonly read through the fluorescence of an indicator in the cells.

The test system of test [2] is Human peripheral neutrophils. The test is described as follows: PMA induced activation of neutrophil oxidative metabolism (DCFH-DA oxidation). It counts as cell-based.
Source text: as §1, §2

The subject of test [3] is Human peripheral neutrophils. The test is described as follows: LPS stimulated neutrophil oxidative metabolism (DCFH-DA oxidation). It counts as cell-based.
Source text: as §1, §2

The target of a further test is T1, PAR-4 (Homo sapiens, UniProt Q96RI0).
T1 construct: host or cells: Chem-1 cells
T1 sequence (Q96RI0 18-385): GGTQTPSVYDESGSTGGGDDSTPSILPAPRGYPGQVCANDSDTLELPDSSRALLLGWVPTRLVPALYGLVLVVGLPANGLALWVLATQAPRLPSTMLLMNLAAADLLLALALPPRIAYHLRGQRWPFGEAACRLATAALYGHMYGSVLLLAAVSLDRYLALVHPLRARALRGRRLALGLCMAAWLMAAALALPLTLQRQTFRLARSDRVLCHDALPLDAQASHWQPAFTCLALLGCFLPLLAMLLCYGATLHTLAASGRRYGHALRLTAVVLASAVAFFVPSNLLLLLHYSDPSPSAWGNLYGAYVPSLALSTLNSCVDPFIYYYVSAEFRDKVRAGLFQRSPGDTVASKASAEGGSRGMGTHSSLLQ
The test is described as follows: Calcium flux and desensitization to thrombin in PAR-4 expressing Chem.-1 cells. It counts as cell-based. As to the method:
as §3

The subject of the next test is neutrophils. As to conditions: in-vitro; Sroussi et al., 2006, 2007; cited from earlier work.
Setting [4] is: 0.01 mU/ml ADA1, S100 proteins 10 to 2.5 μg/ml.

No end group written: not given here.

With SLIGKV-NH2 [PAR-2, reference compound], the “rate of oxidation of the DCFH probe with soluble PAR ligands” value (“rate of oxidation of the DCFH probe” below) in test [1] was “not PAR-1, PAR-2 or PAR-3”.

TFRGAP-NH2 [PAR-3, reference compound]: the “rate of oxidation of the DCFH probe” value in test [1] is on record as “not PAR-1, PAR-2 or PAR-3”.

For GYPGQV-NH2 [PAR-4, reference compound], in test [1], the “rate of oxidation of the DCFH probe” value is on record as “resulted in a significantly accelerated rate of oxidation of the DCFH probe”.

Take thrombin [reference compound]: in the test on thrombin receptors (10 nM thrombin first, then 10 μM S100A8 or 10 μM S100A9), the “desensitization of Chem-3 cells to S100A8 or S100A9 stimulation” value was “resulted in a desensitization of Chem-3 cells to further stimulation”. Besides, the “calcium flux in Chem-3 cells” value with thrombin receptors was “trigger calcium flux in Chem-3 cells in a dose dependent manner”.

On to `CN(C)CCCn1cc(C2=C(c3c[nH]c4ccccc34)C(=O)NC2=O)c2ccccc21` [GFX, Bisindolylmaleimide I, reference compound], for which the “spontaneous activation of neutrophils oxidative metabolism” value in test [1] (5 μM GFX) is “significantly inhibited both the PMA induced and the spontaneous activation of neutrophils oxidative metabolism”. The “PMA induced activation of neutrophils oxidative metabolism” value in test [2] (5 μM GFX, 1 μM PMA) is “significantly inhibited both the PMA induced and the spontaneous activation of neutrophils oxidative metabolism”.

With TFLLRN [PAR-1, reference compound], in test [1], the “rate of oxidation of the DCFH probe” value is on record as “not PAR-1, PAR-2 or PAR-3”.

As for “S100A9: recombinant human S100A9 calcium binding protein, expressed in Escherichia coli as GST fusion, GST tag cleaved”, in test [1], the “rate of spontaneous oxidation of the DCFH-DA probe” value is “reduced the rate at which spontaneous oxidation of the DCFH-DA probe occurred in a dose dependent manner” and the “oxidative metabolism (fluorescence emission of DCFH-DA probe)” value was “significantly inhibited oxidative metabolism at all concentrations tested”. Further, in test [2] (dose dependent), the “PMA activation of neutrophils” value was “produced a dose dependent inhibition of PMA activation of neutrophils”. In addition, the “LPS stimulation of neutrophil oxidative activity” value in test [3] (2.5 to 10 μg/ml of protein, LPS 10 μg/ml) is “strongly inhibited LPS stimulation of neutrophil oxidative activity”. Moreover, the “calcium flux in Chem-3 cells” value with thrombin receptors is listed as “trigger calcium flux in Chem-3 cells in a dose dependent manner”. Moreover, the “calcium flux in PAR-4 expressing cells” value in the test with PAR-4 (data not shown) is “activated calcium flux in those cells”. Besides, the “desensitization of PAR-4 expressing cells to thrombin activation” value with PAR-4 (previous treatment with different concentrations, then 10 nM thrombin) is listed as “dose dependently desensitized PAR-4 expressing cells to thrombin activation”. The “neutrophil chemotaxis toward bacterial products (formylated peptides)” value in the test with neutrophils was “inhibit neutrophil chemotaxis toward bacterial products”.

On to `CCCCCCCCCCCCCC(=O)O[C@@H]1[C@@H](C)[C@@]2(O)[C@@H](C=C(CO)C[C@]3(O)C(=O)C(C)=C[C@@H]23)[C@@H]2C(C)(C)[C@]12OC(C)=O` [PMA, phorbol 12-myristate 13-acetate, reference compound], for which the “rate of DCFH oxidation by a PKC activator” value in test [1] (1 μM PMA) is “significantly accelerated the rate of DCFH oxidation”.

With `COc1ccccc1NC(=O)Nc1nc(-c2cccnc2)nc2ccccc12` [VUF5574, N-(2-methoxyphenyl)-N′-[2-(3-pyridinyl)-4-quinazolinyl]-urea, reference compound], the “effect on anti-oxidative effect of S100A8, spontaneous oxidative metabolism” value in test [1] (2.5 μg/ml S100A8, 1 hour) was “produces a dose sensitive inhibition the anti-oxidative effect of S100A8 on neutrophil spontaneous oxidative metabolism”. Further, the “effect on anti-oxidative effect of S100A8 and S100A9, LPS exposed neutrophils” value in test [3] (10 μM, 10 μg/ml LPS) is recorded as “This anti-oxidative effect was countered”.

Turning to “elafin: inhibitor of PR3 and elastase (AQEPVKGPVSTKPGSCPIILIRCAMLNPPNRCLKDTDCPGIKKCCEGSCGMACFVPQ; ends and bridges not checked; cysteine pairing not given here; UniProt P19957 61-117, looked up) [reference compound]”, the “spontaneous oxidation of the DCFH probe with protease inhibitors” value in test [1] was “no effect on DCFH oxidation”.

B1: ADA1: Human adenosine deaminase from human erythrocytes; deaminates adenosine to inosine (protein, UniProt P00813 2-363, looked up)
Adenosine deaminase: AQTPAFDKPKVELHVHLDGSIKPETILYYGRRRGIALPANTAEGLLNVIGMDKPLTLPDFLAKFDYYMPAIAGCREAIKRIAYEFVEMKAKEGVVYVEVRYSPHLLANSKVEPIPWNQAEGDLTPDEVVALVGQGLQEGERDFGVKARSILCCMRHQPNWSPKVVELCKKYQQQTVVAIDLAGDETIPGSSLLPGHVQAYQEAVKSGIHRTVHAGEVGSAEVVKEAVDILKTERLGHGYHTLEDQALYNRLRQENMHFEICPWSSYLTGAWKPDTEHAVIRLKNDQANYSLNTDDPLIFKSTLDTDYQMTKRDMGFTEEEFKRLNINAAKSSFLPEDEKRELLDLLYKAYGMPPSASAGQNL
On to B1, for which, in test [1] (setting [4]), the “effect on S100A8/S100A9 inhibition of spontaneous oxidative metabolism” value is given as “partially or fully abrogated”. Further, the “effect on S100A8/S100A9 inhibition of LPS stimulated oxidative metabolism” value in test [3] (setting [4]) was “partially or fully abrogated”.

B2: α1 antichymotrypsin: α1-Antichymotrypsin from human plasma; inhibits cathepsin G (protein)
chain: HPNSPLDEENLTQENQDRGTHVDLGLASANVDFAFSLYKQLVLKAPDKNVIFSPLSISTALAFLSLGAHNTTLTEILKGLKFNLTETSEAEIHQSFQHLLRTLNQSSDELQLSMGNAMFVKEQLSLLDRFTEDAKRLYGSEAFATDFQDSAAAKKLINDYVKNGTRGKITDLIKDLDSQTMMVLVNYIFFKAKWEMPFDPQDTHQSRFYLSKKKWVMVPMMSLHHLTIPYFRDEELSCTVVELKYTGNASALFILPDQDKMEEVEAMLLPETLKRWRDSLEFREIGELYLPKFSISRDYNLNDILLQLGIEEAFTSKADLSGITGARNLAVSQVVHKAVLDVFEEGTEASAATAVKITLLSALVETRTIVRFNRPFLMIIVPTDTQNIFFMSKVTNPKQA
On to B2, for which, in test [1], the “spontaneous oxidation of the DCFH probe with protease inhibitors” value is “caused a marked and significant reduction in the oxidation of the DCFH probe”.

B3: calprotectin: mixture of S100A8 and S100A9 at a 1:1 weight ratio referred to as calprotectin (protein)
chain 1: MLTELEKALNSIIDVYHKYSLIKGNFHAVYRDDLKKLLETECPQYIRKKGADVWFKELDINTDGAVNFQEFLILVIKMGVAAHKKSHEESHKE
chain 2: MTCKMSQLERNIETIINTFHQYSVKLGHPDTLNQGEFKELVRKDLQNFLKKENKNEKVIEHIMEDLDTNADKQLSFEEFIMLMARLTWASHEKMHEGDEGPGHHHKPGLGEGTP
For the molecule B3, in test [1], the “rate of spontaneous oxidation of the DCFH-DA probe” value is “reduced the rate at which spontaneous oxidation of the DCFH-DA probe occurred in a dose dependent manner” and the “oxidative metabolism (fluorescence emission of DCFH-DA probe)” value was “significantly inhibited oxidative metabolism at all concentrations tested”.
